Species: Rattus norvegicus
Experiment: Open TG-GATES - Regimen: Single
Format: toxicity, organism-based, Sprague-Dawley
Set-up: regimen Single, gender Male, age 6 weeks
Settings: in vivo, po, route gavage; for APTT / Bas / Eos / Fbg / Hb / Ht / Lym / MCH / MCHC / MCV / Mono / Neu / PT / Plat / RBC / Ret / WBC: tissue Blood; for KIDNEY_L / KIDNEY_R / KIDNEY_TOTAL: tissue Kidney; for LIVER: tissue Liver; for A/G / ALP / ALT / AST / BUN / CRE / Ca / Cl / DBIL / GLC / IP / K / LDH / Na / PL / RALB / TBIL / TC / TG / TP / gamma-GTP: tissue Plasma
[1] = 0 mg/kg, 3 h, dose level Control
[2] = 0 mg/kg, 6 h, dose level Control
[3] = 0 mg/kg, 9 h, dose level Control
[4] = 0 mg/kg, 24 h, dose level Control
[5] = 100 mg/kg, 24 h, dose level Low

## CCOC(=O)CCC(=O)O[C@H]1[C@H](O[C@@H]2[C@@H](C)[C@H](O[C@H]3C[C@@](C)(OC)[C@@H](O)[C@H](C)O3)[C@@H](C)C(=O)O[C@H](CC)[C@@](C)(O)[C@H](O)[C@@H](C)C(=O)[C@H](C)C[C@@]2(C)O)O[C@H](C)C[C@@H]1N(C)C [ERYTHROMYCIN ETHYLSUCCINATE]
[1]
  TERMINAL_BW: 215 g
  APTT: 23.2 s
  Bas: 0%
  Eos: 1%
  Fbg: 292.2 mg/dL
  Hb: 13.2 g/dL
  Ht: 40.2%
  Lym: 81.2%
  MCH: 20.8 pg
  MCHC: 32.9%
  MCV: 63.2 fL
  Mono: 2%
  Neu: 15%
  PT: 16.3 s
  Plat: 112.7 x10_4/uL
  RBC: 635.6 x10_4/ul
  Ret: 7.9%
  WBC: 75.2 x10_2/uL
  KIDNEY_L: 0.9 g
  KIDNEY_R: 0.9 g
  KIDNEY_TOTAL: 1.8 g
  LIVER: 9.7 g
  A/G: 1.2
  ALP: 1728.4 IU/L
  ALT: 40.6 IU/L
  AST: 76.6 IU/L
  BUN: 14.6 mg/dL
  CRE: 0.2 mg/dL
  Ca: 10.4 mg/dL
  Cl: 103.2 meq/L
  DBIL: 0 mg/dL
  GLC: 188.2 mg/dL
  IP: 8.3 mg/dL
  K: 3.9 meq/L
  LDH: 159.2 IU/L
  Na: 139.4 meq/L
  PL: 140 mg/dL
  RALB: 2.9 g/dL
  TBIL: 0.012 mg/dL
  TC: 84.8 mg/dL
  TG: 55.4 mg/dL
  TP: 5.4 g/dL
  gamma-GTP: 1 IU/L
[2]
  TERMINAL_BW: 212.6 g
  APTT: 22.9 s
  Bas: 0%
  Eos: 0.6%
  Fbg: 321.8 mg/dL
  Hb: 13.8 g/dL
  Ht: 42.2%
  Lym: 75.8%
  MCH: 21.3 pg
  MCHC: 32.8%
  MCV: 65 fL
  Mono: 2.4%
  Neu: 20.2%
  PT: 15.8 s
  Plat: 121 x10_4/uL
  RBC: 651 x10_4/ul
  Ret: 7.6%
  WBC: 111.5 x10_2/uL
  KIDNEY_L: 0.9 g
  KIDNEY_R: 0.9 g
  KIDNEY_TOTAL: 1.9 g
  LIVER: 9.3 g
  A/G: 1.2
  ALP: 1491 IU/L
  ALT: 37.4 IU/L
  AST: 70.6 IU/L
  BUN: 9.6 mg/dL
  CRE: 0.2 mg/dL
  Ca: 10.3 mg/dL
  Cl: 103.4 meq/L
  DBIL: 0.002 mg/dL
  GLC: 190.6 mg/dL
  IP: 8.9 mg/dL
  K: 4.1 meq/L
  LDH: 138 IU/L
  Na: 139.6 meq/L
  PL: 139.8 mg/dL
  RALB: 3 g/dL
  TBIL: 0.02 mg/dL
  TC: 78.8 mg/dL
  TG: 67.6 mg/dL
  TP: 5.5 g/dL
  gamma-GTP: 1.2 IU/L
[3]
  TERMINAL_BW: 212 g
  APTT: 22.4 s
  Bas: 0%
  Eos: 0.6%
  Fbg: 319.6 mg/dL
  Hb: 13 g/dL
  Ht: 39.6%
  Lym: 81.2%
  MCH: 20.4 pg
  MCHC: 32.8%
  MCV: 62.2 fL
  Mono: 1.8%
  Neu: 15.4%
  PT: 15.9 s
  Plat: 118.3 x10_4/uL
  RBC: 636.4 x10_4/ul
  Ret: 7.4%
  WBC: 106.6 x10_2/uL
  KIDNEY_L: 1 g
  KIDNEY_R: 1 g
  KIDNEY_TOTAL: 1.9 g
  LIVER: 9 g
  A/G: 1.2
  ALP: 1414 IU/L
  ALT: 38.4 IU/L
  AST: 69.8 IU/L
  BUN: 10.8 mg/dL
  CRE: 0.2 mg/dL
  Ca: 10.5 mg/dL
  Cl: 103.6 meq/L
  DBIL: 0 mg/dL
  GLC: 190.8 mg/dL
  IP: 9.1 mg/dL
  K: 4.2 meq/L
  LDH: 161.4 IU/L
  Na: 139.2 meq/L
  PL: 124.4 mg/dL
  RALB: 2.9 g/dL
  TBIL: 0.016 mg/dL
  TC: 71.6 mg/dL
  TG: 51.6 mg/dL
  TP: 5.4 g/dL
  gamma-GTP: 1 IU/L
[4]
  TERMINAL_BW: 227 g
  APTT: 20.9 s
  Bas: 0%
  Eos: 1%
  Fbg: 327.8 mg/dL
  Hb: 13.5 g/dL
  Ht: 40.3%
  Lym: 83.8%
  MCH: 21.4 pg
  MCHC: 33.4%
  MCV: 64.2 fL
  Mono: 3.4%
  Neu: 11%
  PT: 15.9 s
  Plat: 111.9 x10_4/uL
  RBC: 629.4 x10_4/ul
  Ret: 7.8%
  WBC: 111 x10_2/uL
  KIDNEY_L: 1 g
  KIDNEY_R: 1 g
  KIDNEY_TOTAL: 2 g
  LIVER: 10.5 g
  A/G: 1.2
  ALP: 1574.2 IU/L
  ALT: 37.6 IU/L
  AST: 66.4 IU/L
  BUN: 17.8 mg/dL
  CRE: 0.1 mg/dL
  Ca: 10.5 mg/dL
  Cl: 106.6 meq/L
  DBIL: 0 mg/dL
  GLC: 211.4 mg/dL
  IP: 8.5 mg/dL
  K: 4.3 meq/L
  LDH: 191.4 IU/L
  Na: 143 meq/L
  PL: 156.2 mg/dL
  RALB: 3 g/dL
  TBIL: 0.024 mg/dL
  TC: 81.4 mg/dL
  TG: 119.4 mg/dL
  TP: 5.4 g/dL
  gamma-GTP: 1.2 IU/L
100 mg/kg, 3 h, dose level Low
  TERMINAL_BW: 214.5 g
  APTT: 22.9 s
  Bas: 0%
  Eos: 0.8%
  Fbg: 311.4 mg/dL
  Hb: 13.2 g/dL
  Ht: 39.7%
  Lym: 77.4%
  MCH: 21.4 pg
  MCHC: 33.2%
  MCV: 64.4 fL
  Mono: 2.6%
  Neu: 18.6%
  PT: 16.2 s
  Plat: 111.6 x10_4/uL
  RBC: 617.6 x10_4/ul
  Ret: 8.2%
  WBC: 78.3 x10_2/uL
  KIDNEY_L: 0.9 g
  KIDNEY_R: 1 g
  KIDNEY_TOTAL: 1.9 g
  LIVER: 9.9 g
  A/G: 1.2
  ALP: 1930.6 IU/L
  ALT: 47.6 IU/L
  AST: 78 IU/L
  BUN: 12.8 mg/dL
  CRE: 0.1 mg/dL
  Ca: 10.5 mg/dL
  Cl: 102.8 meq/L
  DBIL: 0.006 mg/dL
  GLC: 189.2 mg/dL
  IP: 9.1 mg/dL
  K: 3.8 meq/L
  LDH: 147.2 IU/L
  Na: 139.2 meq/L
  PL: 142.6 mg/dL
  RALB: 2.9 g/dL
  TBIL: 0.02 mg/dL
  TC: 73 mg/dL
  TG: 70.2 mg/dL
  TP: 5.5 g/dL
  gamma-GTP: 1 IU/L
100 mg/kg, 6 h, dose level Low
  TERMINAL_BW: 213.8 g
  APTT: 22.8 s
  Bas: 0%
  Eos: 0.8%
  Fbg: 308 mg/dL
  Hb: 13.2 g/dL
  Ht: 39.8%
  Lym: 76.6%
  MCH: 20.9 pg
  MCHC: 33.1%
  MCV: 63.4 fL
  Mono: 2.6%
  Neu: 18.8%
  PT: 16 s
  Plat: 118.8 x10_4/uL
  RBC: 628 x10_4/ul
  Ret: 7.8%
  WBC: 108.5 x10_2/uL
  KIDNEY_L: 1 g
  KIDNEY_R: 1 g
  KIDNEY_TOTAL: 2 g
  LIVER: 9.2 g
  A/G: 1.1
  ALP: 1420.4 IU/L
  ALT: 40.2 IU/L
  AST: 72 IU/L
  BUN: 12 mg/dL
  CRE: 0.2 mg/dL
  Ca: 10.5 mg/dL
  Cl: 104 meq/L
  DBIL: 0 mg/dL
  GLC: 187.6 mg/dL
  IP: 9.5 mg/dL
  K: 4.2 meq/L
  LDH: 182 IU/L
  Na: 138 meq/L
  PL: 132.2 mg/dL
  RALB: 2.8 g/dL
  TBIL: 0.02 mg/dL
  TC: 69.8 mg/dL
  TG: 63.4 mg/dL
  TP: 5.3 g/dL
  gamma-GTP: 1.2 IU/L
100 mg/kg, 9 h, dose level Low
  TERMINAL_BW: 216.4 g
  APTT: 23.3 s
  Bas: 0%
  Eos: 1%
  Fbg: 315 mg/dL
  Hb: 13.3 g/dL
  Ht: 40.4%
  Lym: 80.4%
  MCH: 21.5 pg
  MCHC: 33%
  MCV: 65 fL
  Mono: 2%
  Neu: 15.8%
  PT: 15.6 s
  Plat: 121.2 x10_4/uL
  RBC: 622 x10_4/ul
  Ret: 8%
  WBC: 73.2 x10_2/uL
  KIDNEY_L: 1 g
  KIDNEY_R: 1.1 g
  KIDNEY_TOTAL: 2.1 g
  LIVER: 9.2 g
  A/G: 1.2
  ALP: 1398.8 IU/L
  ALT: 32.4 IU/L
  AST: 64 IU/L
  BUN: 12.4 mg/dL
  CRE: 0.1 mg/dL
  Ca: 10.6 mg/dL
  Cl: 105.4 meq/L
  DBIL: 0 mg/dL
  GLC: 188.8 mg/dL
  IP: 9.5 mg/dL
  K: 4.2 meq/L
  LDH: 145.6 IU/L
  Na: 138.6 meq/L
  PL: 136 mg/dL
  RALB: 3 g/dL
  TBIL: 0.012 mg/dL
  TC: 78.2 mg/dL
  TG: 87.4 mg/dL
  TP: 5.5 g/dL
  gamma-GTP: 1.4 IU/L
[5]
  TERMINAL_BW: 222.7 g
  APTT: 21.4 s
  Bas: 0%
  Eos: 0.8%
  Fbg: 326.2 mg/dL
  Hb: 13.8 g/dL
  Ht: 41.6%
  Lym: 86.4%
  MCH: 20.6 pg
  MCHC: 33.2%
  MCV: 62.2 fL
  Mono: 3%
  Neu: 8.2%
  PT: 16 s
  Plat: 122.9 x10_4/uL
  RBC: 670 x10_4/ul
  Ret: 6.7%
  WBC: 102.3 x10_2/uL
  KIDNEY_L: 0.9 g
  KIDNEY_R: 1 g
  KIDNEY_TOTAL: 1.9 g
  LIVER: 9.5 g
  A/G: 1.3
  ALP: 1407.8 IU/L
  ALT: 43.4 IU/L
  AST: 70.4 IU/L
  BUN: 14 mg/dL
  CRE: 0.1 mg/dL
  Ca: 10.6 mg/dL
  Cl: 106.6 meq/L
  DBIL: 0.002 mg/dL
  GLC: 200.6 mg/dL
  IP: 7.7 mg/dL
  K: 4.1 meq/L
  LDH: 183.2 IU/L
  Na: 142.4 meq/L
  PL: 140.4 mg/dL
  RALB: 3.1 g/dL
  TBIL: 0.03 mg/dL
  TC: 83 mg/dL
  TG: 71.6 mg/dL
  TP: 5.5 g/dL
  gamma-GTP: 1.4 IU/L

From ChEMBL document CHEMBL3885861, “Open TG-GATES”
